The values that follow come from US7943606B2, “Compositions and methods to control abnormal cell growth” (CanCure Laboratories, LLC, priority 2005, dated 2011).

A short description of series [1]: Viability of MRC-5 normal lung fibroblasts (MTT assay). It counts as cell-based. Conditions: human, MRC-5 normal lung fibroblasts; 30,000 cells per well (80-90% confluent), 72 hours, MTT; read-out: IC50 values, Cytotoxic, MRC-5. Here is the method: (§1) To quantify cell death, around the time when significant and characteristic morphological changes took place, cells were pulse-labeled for 10 minutes with [^3H]thymidine to measure DNA activity as described elsewhere [Tomono, M. and Kiss, Z. (1995), “Ethanol enhances the stimulatory effects of insulin and insulin-like growth factor-I on DNA synthesis in NIH 3T3 fibroblasts,” Biochem. Biophys. Res. Commun. 208, 63-67]. Also, cells were collected as suspensions using trypsin, an established method in cell biology, followed by re-plating of cells in fresh tissue culture medium. If no viable cells were obtained after one week in culture, it meant that the cells at the time of re-plating were dead. Survival values obtained with untreated cells were considered 100%. For the determination of relative number of viable cells after treatments, in most cases the MTT assay was used. This calorimetric assay is based on the ability of living cells, but not dead cells, to reduce 3-(4,5-dimethyl thiazol-2-yl)-2,5-diphenyltetrazolium bromide [Carmichael, J, De Graff, W. G., Gazdar, A. F., Minna, J. D. and Mitchell, J. B. (1987), “Evaluation of tetrazolium-based semi-automated calorimetric assay: Assessment of chemosensitivity testing,” Cancer Res. 47, 936-942]. For this assay, cells were plated in 96-well plates, and the MTT assay was performed both in untreated and treated cell cultures. The MTT assay also was performed at the start of treatments to allow assessment of proliferation rates in the control and treated cell cultures.
(§2) The MRC-5 cell line is derived from normal lung tissue of a […] fetus. MRC-5 cells were maintained and treated in Eagles Medium with Hanks' BSS containing 10% fetal bovine serum. The T47D cells were maintained and treated in RPMI 1640 medium supplemented with 0.2 IU bovine insulin and 10% fetal bovine serum. The CaOV-3 human ovarian cancer cells were cultured in Dulbecco's modified Eagle's medium containing 10% fetal bovine serum. The cells were seeded in 96-well plates either at 10,000 cells per well or 30,000 cells per well to examine the antiproliferative and cytotoxic effects of various CC compounds, respectively. The cells were incubated for 24 hours, then the medium was changed followed by the treatments of cultures 2 hours after the medium change. At this point, cell cultures seeded at 10,000 cells per well and 30,000 cells per well were 25-35% and 80-90% confluent, respectively. Incubations were continued for 72 hours followed by the MTT assay. The data, shown in TABLE 2, indicate the inhibitory concentrations of CC compounds (IC50) required for 50% decrease in the number of viable cells. These numbers are calculated from the mean of 4 incubations in one experiment (the experiment was repeated once with similar results).

The subject of another series is MRC-5 cells. The description is as above. Conditions: Homo sapiens, MRC5; 10,000 cells per well (25-35% confluent), 72 hours, MTT; read-out: IC50 values, Antiproliferative, MRC-5. It counts as cell-based. Here is the method: as §1, §2
For the next series, the system named is MCF-7 cells. Put plainly: Viability of MCF-7 breast cancer cells. It counts as cell-based, human. Here is the method:
as §1
About 50% confluent cultures of MCF-7 cells, cultured in 12-well plates in Dulbecco's modified Eagle's medium (DMEM) supplemented with 10% FBS, were either untreated (FIG. 3A), or were treated with 100 μM CCDTHT (CCompound3) for 72 hours (FIG. 3B). […] This experiment was repeated three times with similar results. In some experiments, cells from the CCDTHT-treated cultures were seeded into 96-well plates, and the MTT assay was performed 96 hours later to test for viable cells.
The NIH 3T3 (normal) mouse fibroblast, A431 human epidermoid adenocarcinoma, and MCF-7 human breast cancer cells were cultured in DMEM medium containing 10% FBS. The MEL-28 human melanoma cells were cultured in MEM medium containing 10% FBS. The HT-29 human colon adenocarcinoma cells were cultured in McCoy's 5a medium containing 10% FBS. The A549 human lung carcinoma cells were maintained in Ham's F12K medium containing 10% FBS. Cells were seeded into 96-well plates and treated at ˜70-90% confluency. Two hours before treatments the medium was changed for fresh 10% serum medium, and then the cells were incubated for 72 hours in the presence of 0-200 μM of CCompound1 (●) or CCompound3 (CCDTHT) (▴), as indicated. The MTT assay was used to determine cell viability after treatments. The values, shown in FIGS. 5A-5F and expressed as percent decrease in viability compared to the untreated control cells, are the mean±std. dev. of 8 incubations in one experiment. Similar results were obtained in another experiment.
NIH 3T3, AN3CA, HT-29, MEL-28, and MCF-7 cells were cultured as described earlier. Cells were seeded into 96-well plates; when cells were ˜80-90% confluent, the medium was changed for fresh 10% serum-containing medium, followed by incubations for 72 hours in the absence (□) or presence of 100 μM CCDTHT ? , 2 mM ethanolamine (Etn) ? , or 100 μM CCDTHT+2 mM Etn (▪). The MTT assay was used to determine cell viability. […]

The test system of a further series is U-87 cells. Kind of series: Viability of U-87 malignant glioma cells (MTT assay). It counts as cell-based, human. Conditions: 100-200 μM, 72 hours. Here is the method:
To quantify cell death, around the time when significant and characteristic morphological changes took place, cells were pulse-labeled for 10 minutes with [^3H]thymidine to measure DNA activity as described elsewhere [Tomono, M. and Kiss, Z. (1995), “Ethanol enhances the stimulatory effects of insulin and insulin-like growth factor-I on DNA synthesis in NIH 3T3 fibroblasts,” Biochem. Biophys. Res. Commun. 208, 63-67]. Also, cells were collected as suspensions using trypsin, an established method in cell biology, followed by re-plating of cells in fresh tissue culture medium. If no viable cells were obtained after one week in culture, it meant that the cells at the time of re-plating were dead. Survival values obtained with untreated cells were considered 100%. For the determination of relative number of viable cells after treatments, in most cases the MTT assay was used. This calorimetric assay is based on the ability of living cells, but not dead cells, to reduce 3-(4,5-dimethyl thiazol-2-yl)-2,5-diphenyltetrazolium bromide [Carmichael, J, De Graff, W. G., Gazdar, A. F., Minna, J. D. and Mitchell, J. B. (1987), “Evaluation of tetrazolium-based semi-automated calorimetric assay: Assessment of chemosensitivity testing,” Cancer Res. 47, 936-942]. For this assay, cells were plated in 96-well plates, and the MTT assay was performed both in untreated and treated cell cultures. […]

The structures appear in SMILES notation. Read-outs that look alike come from different tables or passages of the source.

For the compound `CC[N+](C)(CC)CCOCc1ccc2sc3ccccc3c(=O)c2c1.[I-]` [CCDTHT, N,N-diethyl-N-methyl-2-[(9-oxo-9H-thioxanthen-2-yl)methoxy]-ethanaminium iodide], the IC50 – broadly, the midpoint of a concentration-inhibition curve – at 72 h in series [1] was determined as 119 µM. The IC50 with MRC-5 cells came to 90 µM. Also, in the series with MCF-7 cells (0-200 μM, 72 hours, MTT), the “decrease in viability, MCF-7” value is on record as “similarly large effects”. For the same compound, the “viable cells by MTT after re-seeding treated MCF-7 cells” value in the series with MCF-7 cells (100 μM 72 hours, re-seeded, MTT 96 hours later) is “did not detect viable cells”. Moreover, the “morphology / cell death, MCF-7” value with MCF-7 cells (100 μM, 72 hours, 12-well plates) is “practically all cells rounded up”. In addition, the “number of viable U-87 cells” value in the series on U-87 cells is given as “sharply decrease”. Also, the solubility in water result is given as “sufficiently soluble in water for injection” in the series “Solubility in water” and “soluble in water” in the series “Solubility in water” (listed as CCompound3).
